Test results reported in US12071425B2 (Genentech, Inc., priority 2018, dated 2024).
Counter-ions that a name gives are not always drawn.

Each compound was assayed against kinase domain of IRE1 alpha (His-tagged kinase dead construct KR, AA G547-L977, D688N) (Homo sapiens (Human), UniProt O75460, D688N) (assay: IRE1α TR-FRET competition binding assay). Details: competition with Kinase Tracer 236, 0.1 μM; one hour at room temperature.
Method in brief: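 Sf9-expressed kinase-dead KR construct (0.006 μM final) pre-incubated 1 h at 4° C with Eu anti-His antibody (0.002 μM) in HEPES pH 7.5/MgCl2/Brij/DTT buffer; Kinase Tracer 236 (ATP-competitive probe, 0.1 μM final) added with compound. 1 h at room temperature; tracer displacement read by TR-FRET (665/615 nm).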

kinase domain of IRE1 alpha (His-tagged kinase dead construct KR, AA G547-L977, D688N), sequence (O75460 547-977 D688N): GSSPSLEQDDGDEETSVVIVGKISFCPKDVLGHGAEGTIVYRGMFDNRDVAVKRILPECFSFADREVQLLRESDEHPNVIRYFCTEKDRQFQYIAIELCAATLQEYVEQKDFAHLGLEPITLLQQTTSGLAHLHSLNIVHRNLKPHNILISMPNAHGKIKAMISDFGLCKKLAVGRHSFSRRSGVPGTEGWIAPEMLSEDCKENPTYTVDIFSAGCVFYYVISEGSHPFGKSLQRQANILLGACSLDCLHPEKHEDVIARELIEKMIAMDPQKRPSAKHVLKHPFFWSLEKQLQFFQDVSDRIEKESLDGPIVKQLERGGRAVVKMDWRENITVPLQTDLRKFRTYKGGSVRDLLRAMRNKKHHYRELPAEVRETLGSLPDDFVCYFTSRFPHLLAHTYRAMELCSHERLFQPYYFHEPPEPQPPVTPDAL

IC50 | Structure (SMILES)
23 nM | Cc1cc(NS(=O)(=O)C2CCCC2)cc(F)c1Oc1ncccc1-c1ccnc(N[C@H]2CCCNC2)n1 [Compound 116, (S)-N-(3-fluoro-5-methyl-4-((3-(2-(piperidin-3-ylamino)pyrimidin-4-yl)pyridin-2-yl)oxy)phenyl)cyclopentanesulfonamide hydrochloride]
21 nM | Cc1cc(NS(=O)(=O)C2CCCCC2)cc(F)c1Oc1ncccc1-c1ccnc(N[C@H]2CCCNC2)n1 [Compound 117, (S)-N-(3-fluoro-5-methyl-4-((3-(2-(piperidin-3-ylamino)pyrimidin-4-yl)pyridin-2-yl)oxy)phenyl)cyclohexanesulfonamide hydrochloride]
13 nM | Cc1cc(NS(=O)(=O)Cc2ccccc2)cc(F)c1Oc1ncccc1-c1ccnc(N[C@H]2CC[C@H](N)CC2)n1 [Compound 119, N-(4-((3-(2-(((1r,4r)-4-aminocyclohexyl)amino)pyrimidin-4-yl)pyridin-2-yl)oxy)-3-fluoro-5-methylphenyl)-1-phenylmethanesulfonamide hydrochloride]
110 nM | Cc1cc(NC(=O)C2CC2)cc(F)c1Oc1ncccc1-c1ccnc(N[C@H]2CC[C@H](N)CC2)n1 [Compound 120, N-(4-((3-(2-(((1r,4r)-4-aminocyclohexyl)amino)pyrimidin-4-yl)pyridin-2-yl)oxy)-3-fluoro-5-methylphenyl)cyclopropanecarboxamide hydrochloride]
26 nM | CCCS(=O)(=O)Nc1cc(F)c(Oc2ncccc2-c2ccnc(N[C@H]3CC[C@H](N)CC3)n2)c(Cl)c1 [Compound 121, N-(4-((3-(2-(((1r,4r)-4-Aminocyclohexyl)amino)pyrimidin-4-yl)pyridin-2-yl)oxy)-3-chloro-5-fluorophenyl)propane-1-sulfonamide hydrochloride]
280 nM | CCCS(=O)(=O)Nc1cc(C)c(Oc2ncccc2-c2ccnc(N[C@H]3CCCNC3)n2)cc1C [Compound 126, (S)-N-(2,5-Dimethyl-4-((3-(2-(piperidin-3-ylamino)pyrimidin-4-yl)pyridin-2-yl)oxy)phenyl)propane-1-sulfonamide]
370 nM | CCCS(=O)(=O)Nc1ccc(F)c(Oc2ncccc2-c2ccnc(N[C@H]3CCCNC3)n2)c1 [Compound 127, (S)-N-(4-fluoro-3-((3-(2-(piperidin-3-ylamino)pyrimidin-4-yl)pyridin-2-yl)oxy)phenyl)propane-1-sulfonamide]
11 nM | O=S(=O)(Nc1ccc(F)c(Oc2ncccc2-c2ccnc(N[C@H]3CCCNC3)n2)c1)c1ccccc1Cl [Compound 128, (S)-2-Chloro-N-(4-fluoro-3-((3-(2-(piperidin-3-ylamino)pyrimidin-4-yl)pyridin-2-yl)oxy)phenyl)benzenesulfonamide]
32 nM | O=S(=O)(Nc1cccc(Oc2ncccc2-c2ccnc(N[C@H]3CCCNC3)n2)c1)c1ccccc1Cl [Compound 132, (S)-2-Chloro-N-(3-((3-(2-(piperidin-3-ylamino)pyrimidin-4-yl)pyridin-2-yl)oxy)phenyl)benzenesulfonamide hydrochloride]
120 nM | O=S(=O)(Cc1ccccc1)Nc1cccc(Oc2ncccc2-c2ccnc(N[C@H]3CCCNC3)n2)c1 [Compound 133, (S)-1-Phenyl-N-(3-((3-(2-(piperidin-3-ylamino)pyrimidin-4-yl)pyridin-2-yl)oxy)phenyl)methanesulfonamide hydrochloride]
200 nM | Cc1ccc(NS(=O)(=O)Cc2ccccc2)cc1Oc1ncccc1-c1ccnc(N[C@H]2CCCNC2)n1 [Compound 136, (S)—N-(4-Methyl-3-((3-(2-(piperidin-3-ylamino)pyrimidin-4-yl)pyridin-2-yl)oxy)phenyl)-1-phenylmethanesulfonamide hydrochloride]
7.4 nM | O=S(=O)(Nc1ccc(Cl)c(Oc2ncccc2-c2ccnc(N[C@H]3CCCNC3)n2)c1F)c1ccccc1Cl [Compound 137, (S)-2-Chloro-N-(4-chloro-2-fluoro-3-((3-(2-(piperidin-3-ylamino)pyrimidin-4-yl)pyridin-2-yl)oxy)phenyl)benzenesulfonamide hydrochloride]
15 nM | O=S(=O)(Cc1ccccc1)Nc1ccc(Cl)c(Oc2ncccc2-c2ccnc(N[C@H]3CCCNC3)n2)c1F [Compound 138, (S)—N-(4-Chloro-2-fluoro-3-((3-(2-(piperidin-3-ylamino)pyrimidin-4-yl)pyridin-2-yl)oxy)phenyl)-1-phenylmethanesulfonamide]
46 nM | Cc1c(NS(=O)(=O)c2ccccc2Cl)cccc1Oc1ncccc1-c1ccnc(N[C@H]2CCCNC2)n1 [Compound 139, (S)-2-Chloro-N-(2-methyl-3-((3-(2-(piperidin-3-ylamino)pyrimidin-4-yl)pyridin-2-yl)oxy)phenyl)benzenesulfonamide hydrochloride]
26 nM | Cc1c(NS(=O)(=O)Cc2ccccc2)cccc1Oc1ncccc1-c1ccnc(N[C@H]2CCCNC2)n1 [Compound 140, (S)—N-(2-Methyl-3-((3-(2-(piperidin-3-ylamino)pyrimidin-4-yl)pyridin-2-yl)oxy)phenyl)-1-phenylmethanesulfonamide hydrochloride]
34 nM | CCCS(=O)(=O)Nc1ccc(Cl)c(Oc2ncccc2-c2ccnc(N[C@H]3CCCNC3)n2)c1F [Compound 143, (S)—N-(4-Chloro-2-fluoro-3-((3-(2-(piperidin-3-ylamino)pyrimidin-4-yl)pyridin-2-yl)oxy)phenyl)propane-1-sulfonamide hydrochloride]

The remaining lines, values behind:

Structure (SMILES) | IC50
CCCS(=O)(=O)Nc1cc(C)c(Oc2ncccc2-c2ccnc(N[C@H]3CC[C@H](N)CC3)n2)c(F)c1 [Compound 118, N-(4-((3-(2-(((1r,4r)-4-aminocyclohexyl)amino)pyrimidin-4-yl)pyridin-2-yl)oxy)-3-fluoro-5-methylphenyl)propane-1-sulfonamide hydrochloride] | 47 nM
CCCS(=O)(=O)Nc1cc(F)c(Oc2ncccc2-c2ccnc(N[C@H]3CC[C@H](N)CC3)n2)c(F)c1 [Compound 122, N-(4-((3-(2-(((1r,4r)-4-aminocyclohexyl)amino)pyrimidin-4-yl)pyridin-2-yl)oxy)-3,5-difluorophenyl)propane-1-sulfonamide hydrochloride] | 20 nM
Cc1c(NS(=O)(=O)c2ccccc2Cl)ccc(Oc2ncccc2-c2ccnc(N[C@H]3CCCNC3)n2)c1C [Compound 123, (S)-2-Chloro-N-(2,3-dimethyl-4-((3-(2-(piperidin-3-ylamino)pyrimidin-4-yl)pyridin-2-yl)oxy)phenyl)benzenesulfonamide] | 50 nM
CCCS(=O)(=O)Nc1cc(C)c(Oc2ncccc2-c2ccnc(N[C@H]3CCCNC3)n2)cc1C [Compound 124, (S)-N-(2,5-Dimethyl-4-((3-(2-(piperidin-3-ylamino)pyrimidin-4-yl)pyridin-2-yl)oxy)phenyl)propane-1-sulfonamide] | 210 nM
Cc1cc(Oc2ncccc2-c2ccnc(N[C@H]3CCCNC3)n2)c(C)cc1NS(=O)(=O)c1ccccc1Cl [Compound 125, (S)-2-chloro-N-(2,5-dimethyl-4-((3-(2-(piperidin-3-ylamino)pyrimidin-4-yl)pyridin-2-yl)oxy)phenyl)benzenesulfonamide] | 27 nM
Cc1c(NC(=O)CC2CCCCC2)ccc(Oc2ncccc2-c2ccnc(N[C@H]3CCCNC3)n2)c1C [Compound 129, (S)-2-Cyclohexyl-N-(2,3-dimethyl-4-((3-(2-(piperidin-3-ylamino)pyrimidin-4-yl)pyridin-2-yl)oxy)phenyl)acetamide] | 230 nM
Cc1c(NC(=O)Cc2ccc(Cl)cc2)ccc(Oc2ncccc2-c2ccnc(N[C@H]3CCCNC3)n2)c1C [Compound 130, (S)-2-(4-Chlorophenyl)-N-(2,3-dimethyl-4-((3-(2-(piperidin-3-ylamino)pyrimidin-4-yl)pyridin-2-yl)oxy)phenyl)acetamide] | 170 nM
Cc1cc(NS(=O)(=O)c2ccccc2Cl)cc(C)c1Oc1ncccc1-c1ccnc(N[C@H]2CCCNC2)n1 [Compound 131, (S)-2-Chloro-N-(3,5-dimethyl-4-((3-(2-(piperidin-3-ylamino)pyrimidin-4-yl)pyridin-2-yl)oxy)phenyl)benzenesulfonamide hydrochloride] | 59 nM
O=S(=O)(Nc1ccc(Oc2ncccc2-c2ccnc(N[C@H]3CCCNC3)n2)cc1)c1ccccc1Cl [Compound 134, (S)-2-Chloro-N-(4-((3-(2-(piperidin-3-ylamino)pyrimidin-4-yl)pyridin-2-yl)oxy)phenyl)benzenesulfonamide hydrochloride] | 21 nM
Cc1ccc(NS(=O)(=O)c2ccccc2Cl)cc1Oc1ncccc1-c1ccnc(N[C@H]2CCCNC2)n1 [Compound 135, (S)-2-Chloro-N-(4-methyl-3-((3-(2-(piperidin-3-ylamino)pyrimidin-4-yl)pyridin-2-yl)oxy)phenyl)benzenesulfonamide hydrochloride] | 41 nM
O=S(=O)(Nc1cccc(Oc2ncccc2-c2ccnc(N[C@H]3CCCNC3)n2)c1F)c1ccccc1Cl [Compound 141, (S)-2-Chloro-N-(2-fluoro-3-((3-(2-(piperidin-3-ylamino)pyrimidin-4-yl)pyridin-2-yl)oxy)phenyl)benzenesulfonamide hydrochloride] | 17 nM
O=S(=O)(Cc1ccccc1)Nc1cccc(Oc2ncccc2-c2ccnc(N[C@H]3CCCNC3)n2)c1F [Compound 142, (S)—N-(2-Fluoro-3-((3-(2-(piperidin-3-ylamino)pyrimidin-4-yl)pyridin-2-yl)oxy)phenyl)-1-phenylmethanesulfonamide hydrochloride] | 16 nM
CCCS(=O)(=O)Nc1cccc(Oc2ncccc2-c2ccnc(N[C@H]3CCCNC3)n2)c1F [Compound 144, (S)—N-(2-Fluoro-3-((3-(2-(piperidin-3-ylamino)pyrimidin-4-yl)pyridin-2-yl)oxy)phenyl)propane-1-sulfonamide hydrochloride] | 370 nM
